Target: MmpL3tb(G253E) (Mycobacterium tuberculosis, UniProt P9WJV5, G253E)
Format: binding

| SMILES | BLI binding to MmpL3tb(G253E) versus WT |
| --- | --- |
| Cc1cc(C)c2cc(C(=O)NC3CCCCCCC3)[nH]c2c1 [North 21] | no binding to MmpL3tb(G253E) was detected |
| CC(C)=CCC/C(C)=C/CNCCNC1C2CC3CC(C2)CC1C3 (stereo not drawn) [SQ109] | no binding to MmpL3tb(G253E) was detected |
| C[C@@H]1[C@H]2C[C@@H](C[C@H]1NC(=O)c1cc3ccccc3[nH]1)C2(C)C [North 4] | unaltered by the G253E mutation |
